# Measurements as given in patent US6313132A, “Therapeutically active diarylpropylamines; their pharmaceutically acceptable salts; a method for their preparation and method for their use” (Pharmacia AB, priority 1999, dated 2001).
# Where a name gives a salt, the structure may show the parent alone.
# Molecular target: T1, muscarinic receptor (Cavia porcellus, UniProt H0W1Z3)
# T1 construct: Smooth muscle strips of the urinary bladder were dissected in a Krebs-Henseleit solution; from tissue; host or cells: guinea pig urinary bladder smooth muscle strips
# T1 sequence (H0W1Z3 1-590): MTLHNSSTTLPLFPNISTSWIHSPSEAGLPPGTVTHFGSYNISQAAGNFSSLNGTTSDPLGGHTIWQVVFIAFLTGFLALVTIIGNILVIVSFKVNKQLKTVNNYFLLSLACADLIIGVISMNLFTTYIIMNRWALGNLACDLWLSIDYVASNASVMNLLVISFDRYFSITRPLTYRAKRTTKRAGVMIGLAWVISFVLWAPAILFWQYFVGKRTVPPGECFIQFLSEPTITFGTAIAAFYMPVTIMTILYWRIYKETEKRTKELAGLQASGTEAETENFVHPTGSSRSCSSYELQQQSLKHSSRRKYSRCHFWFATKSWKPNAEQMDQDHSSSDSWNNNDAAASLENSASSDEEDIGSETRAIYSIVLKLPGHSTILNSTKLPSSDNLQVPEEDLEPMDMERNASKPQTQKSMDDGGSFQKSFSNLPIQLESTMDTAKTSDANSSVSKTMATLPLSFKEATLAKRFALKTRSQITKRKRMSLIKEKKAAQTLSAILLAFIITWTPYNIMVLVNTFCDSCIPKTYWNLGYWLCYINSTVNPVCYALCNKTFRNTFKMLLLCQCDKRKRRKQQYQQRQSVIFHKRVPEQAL
# Assay: Functional in vitro studies: antagonism of carbachol-induced contraction of urinary bladder smooth muscle strips
# Format: cell-based, guinea pig
# Conditions: male guinea pig urinary bladder strips; carbachol agonist; 60 min incubation with antagonist; Krebs-Henseleit pH 7.4, 37° C.; KB from dose ratios (Schild); read-out: KB-value
# Procedure: Functional in Vitro Studies
# Male guinea pigs, weighing about 300 g, were killed by a blow on the neck and exsanguinated. Smooth muscle strips of the urinary bladder were dissected in a Krebs-Henseleit solution (pH 7.4). The strip preparations were vertically mounted between two hooks in thermostatically controlled (37° C.) organ baths (5 ml). One of the hooks was adjustable and connected to a force transducer (FT 03, Grass Instruments). The Krebs-Henseleit solution was continuously bubbled with carbogen gas (93.5% O2 /6.5% CO2) to maintain the pH at 7.4. Isometric tension was recorded by a Grass Polygraph (Model 79D). A resting tension of approximately 5 mN was initially applied on each muscle strip and the preparations were allowed to stabilise for at least 45 min. The resting tension was repeatedly adjusted and the preparations were washed several times during the stabilisation period.
# Carbachol (carbamylcholine chloride) was used as the standard muscarinic receptor agonist. In each experiment, the viability of the preparations and the reproducibility of their contractile responses were initially tested by two consecutive additions of a submaximal concentration (3×10^-6 M) of carbachol. A concentration-response curve to carbachol was then generated by cumulative addition of carbachol to the organ-bath (i.e., stepwise increase of the agonist concentration until the maximal contractile response was reached), followed by washing out and a resting period of at least 15 min. before a fix concentration of the test compound (antagonist) was added to the organ-bath. After 60 min. of incubation with the antagonist, a second cumulative concentration-responsecurve to carbachol was generated. Responses were expressed as percent of the maximal response to carbachol. EC50 -values for carbachol in the absence (control) and presence of antagonist were graphically derived and dose ratios (r) were calculated. Dissociation constants, KB, for the antagonists were calculated using equation (1) (Schild, H. I., Br. J. Pharmacol. Chemother. 1949, 4, 277-280), where [A] is the concentration of test compound:
row,Kb,Compound
1,91 nM,"COc1ccccc1C(CCN(C)C(C)C)c1cccs1 (centres unmarked) [Example 47, N-Isopropyl-N-methyl-3-(2-methoxyphenyl)-3-(2-thienyl)propanamine fumarate]"
2,590 nM,"CN(CCC(c1ccccc1)c1cccs1)C1CCCCC1 (centres unmarked) [Example 49, N-Cyclohexyl-N-methyl-3-phenyl-3-(2-thienyl)propanamine hydrochloride]"
3,154 nM,"CCN(CC)CCC(c1ccccc1)c1cccs1 (centres unmarked) [Example 50, fumarate]"
4,118 nM,"CC(C)N(C)CCC(c1ccccc1)c1cccs1 (centres unmarked) [Example 51, N-Isopropyl-N-methyl-3-phenyl-3-(2-thienyl)propanamine hydrochloride]"
5,350 nM,"c1ccc(C(CCN2CCCC2)c2cccs2)cc1 (centres unmarked) [Example 52, N-[3-Phenyl-3-(2-thienyl)propyl]pyrrolidine fumarate]"
6,690 nM,"CC(C)N(CCC(c1ccccc1)c1cccn1C)C(C)C (centres unmarked) [Example 59, N,N-Diisopropyl-3-(N-methylpyrrol-2-yl)-3-phenylpropanamine fumarate]"

# The remaining lines, values behind:
row,Compound,Kb
1,"COc1cccc(C(CCN(C(C)C)C(C)C)c2cccs2)c1 (centres unmarked) [Example 45, N,N-Diisopropyl-3-(3-methoxyphenyl)-3-(2-thienyl)propanamine hydrochloride]",51 nM
2,"COc1ccc(C(CCN(C(C)C)C(C)C)c2cccs2)cc1 (centres unmarked) [Example 46, N,N-Diisopropyl-3-(4-methoxyphenyl)-3-(2-thienyl)propanamine hydrochloride]",286 nM
3,"CC(C)N(CCC(c1ccccc1)c1cccs1)C(C)C (centres unmarked) [Example 48, N,N-Diisopropyl-3-phenyl-3-(2-thienyl)propanamine, hydrochloride]",31 nM
4,"c1ccc(C(CCN2CCCCC2)c2cccs2)cc1 (centres unmarked) [Example 53, N-[3-Phenyl-3-(2-thienyl)propyl]piperidine hydrochloride]",154 nM
5,"Cn1cccc1C(CCN1CCCC1)c1ccccc1 (centres unmarked) [Example 60, 3-(N-Methylpyrrol-2-yl)-3-phenyl-1-pyrrolidinopropane fumarate]",707 nM
